Data set [1] concerns CXCR4-positive Jurkat cells. The data set is described as follows: cells. The class given is cell-based, human. The following applies: read-out: IC50 Chemotaxis. The procedure: Jurkat cells were washed twice in assay buffer (see above), dispensed into a 96-well plate (5x10^5 cells per well) containing serial dilutions of compounds (in assay buffer) and incubated at RT in the dark for 10 minutes. […] Suspensions of 1.87x10^4 cells were transferred to the chemotaxis insert plate. […] After removal of the insert plate, migrated cells were centrifuged and resuspended in DPBS containing flow cytometry cell counting beads ([…] Fluorescent Particles; Gentaur, London, UK). Both migrated cells and particles were counted by flow cytometry (FACSCanto II; Becton Dickinson). Each compound concentration was tested in triplicate. Data were analyzed using the FlowJo software and the total number of migrated cells was calculated, according to the counted and total number of beads present in the sample.

Data set [2] addresses T1, CXCR4 (Homo sapiens, UniProt P61073). The data set is described as follows: Labeled CXCR4 monoclonal antibody binding (clones 12G5, 1D9), flow cytometry. The following applies: 12G5 clone and 1D9 clone, data not shown. Further details: CXCR4 receptors endogenously expressed on SUP-T1 cells; endogenous in cells; host or cells: SUP-T1 (ATCC). The procedure:
A feature of CXCR4, shared with many other GPCRs, is its internalization following agonist binding, also known as receptor endocytosis. To evaluate the potential inhibitory effect of the compounds on CXCR4 endocytosis, CXCR4 receptors endogenously expressed on SUP-T1 cells were first stained with a PE-labeled rat anti-human CXCR4 mAb targeting the receptor’s N-terminus (clone 1D9) and subsequently incubated with compound. […] In addition, when SUP-T1 cells were incubated with compound for thirty minutes at 4°C, and afterwards stained with the CXCR4 mAb (1D9) for thirty minutes at 4°C, no displacement (i.e. decrease in mAb binding) of the CXCR4 mAb was observed by flow cytometry (data not shown). […] In consequence, reduced cellular staining in our assay reflects the inhibitory effects of compounds on receptor internalization and not simply displacement of the CXCR4 mAb.
In general terms: Flow cytometry measures light scatter and fluorescence of single cells or particles in a stream.

Data set [3] concerns the target T1, CXCR4. Kind of data set: Calcium mobilization assay (FLIPR Tetra) in U87.CD4.CXCR4 cells. The following applies: read-out: IC50 Calcium signaling (CXCL12-induced). It is filed as cell-based. Here is the method: U87.CD4.CXCR4 cells were seeded at 2x10^4 cells per well in gelatin-coated black-walled 96-well plates [0.1% gelatin in DPBS, incubated at RT for two hours and washed once with DPBS] and incubated at 37°C and 5% CO2 overnight. […] Fluo-2 AM loaded cells were washed with assay buffer before being incubated in the FLIPR Tetra system at 37°C for five minutes. At the start of the kinetic measurement, compounds were added to the cell plate by the internal robotic system followed by an incubation period of 10 minutes during which changes in the intracellular calcium level were continuously measured by the FLIPR Tetra. […] Each condition was measured in triplicate and repeated several times as further indicated (see Results).
(In general: Calcium flux is commonly read through the fluorescence of an indicator in the cells.)

In data set [4] the target is T1, CXCR4. Kind of data set: CXCL12/CXCR4 interaction on SUP-T1 cells. The class given is binding. The arrangement: CXCR4 receptors endogenously expressed on SUP-T1 cells; endogenous in cells; host or cells: SUP-T1 (ATCC). The following applies: high concentration, data not shown.
The target of data set [5] is T1, CXCR4. Kind of data set: CXCR4 internalization assay in SUP-T1 cells. The arrangement: CXCR4 receptors endogenously expressed on SUP-T1 cells; endogenous in cells; host or cells: SUP-T1 (ATCC). The following applies: for induction of CXCR4 internalization (agonistic effect): in absence of CXCL12, data not shown. The class given is cell-based. Here is the method: T-lymphoblastic SUP-T1 cells were washed twice in DPBS containing 2% FBS. Afterwards, cells were first incubated with the PE-labeled rat anti-human CXCR4 mAb (clone 1D9; 2 μg/ml in DPBS/2% FBS; BD Pharmingen) on ice for 45 minutes. […] SUP-T1 cells were subsequently washed once with ice cold DPBS and twice with ice cold assay buffer (see above) before being treated with test compound on ice for 15 minutes. […] Samples were immediately analyzed with the FACSCalibur flow cytometer (Becton Dickinson) whereby the measured fluorescence corresponds to the amount of […] CXCR4 receptors. Data were further analyzed with the FlowJo software.

The target in data set [6] is T1, CXCR4. The data set is described as follows: CXCL12^AF647 binding assay on Jurkat cells. The following applies: read-out: IC50 CXCL12-CXCR4 binding interaction. Here is the method:
In brief, Jurkat cells were washed twice in assay buffer [Hank’s Balanced Salt Solution (HBSS; Thermo Fisher Scientific), 20 mM HEPES buffer (Thermo Fisher Scientific), 0.2% bovine serum albumin (Sigma-Aldrich), pH 7.4]. […] Afterwards, cells were washed twice in assay buffer and subsequently fixed in 1% paraformaldehyde in Dulbecco’s phosphate buffered saline (DPBS). Samples were analyzed with the FACSArray flow cytometer (Becton Dickinson, NJ, USA). Data were further analyzed with the FlowJo Software (Ashland, Oregon, USA).

For data set [7], the system named is HIV-1 NL4-3 (X4). Kind of data set: microbe, parasite or virus in culture. It is filed as cell-based. Conditions: PHA-stimulated PBMCs, ten days post infection, p24 Ag ELISA, mean ± SEM, read-out: IC50 HIV-1 (X4) NL4-3 replication, PHA-stimulated PBMCs. Here is the method: PHA-stimulated PBMCs at 5x10^5 cells per sample, pre-incubated with test compounds dissolved in cell culture medium containing IL-2 (2 ng/ml; […] After three days, fresh culture medium with IL-2 was added. Ten days post infection cell supernatant was collected for HIV-1 p24 core antigen enzyme-linked immunosorbent assay (ELISA; Perkin Elmer, Boston, MA, USA) according to the manufacturer’s protocol. In the antiviral assays, each condition was tested in duplicate.
In general terms: ELISA stands for enzyme-linked immunosorbent assay.

For data set [8], the system named is HIV-1 NL4-3 (X4). The data set is described as follows: microbe, parasite or virus in culture. Conditions: MT-4 cells, four days post infection, MTS, mean ± SEM, read-out: IC50 HIV-1 (X4) NL4-3 replication, MT-4 cells. The class given is cell-based. The procedure:
The anti-HIV replication assays in MT-4 cells and PHA-stimulated PBMCs have been described previously. The HIV-1 T-tropic molecular clone NL4-3 (X4) was obtained from the National Institute of Allergy and Infectious Disease (NIAID) AIDS reagent program (Bethesda, MD, USA). Briefly, 5x10^4 MT-4 cells (in cell culture medium) were treated with different concentrations of compound at 37°C for 30 minutes. Afterwards, a 50% tissue culture infectious dose of the NL4-3 viral stock was added to the cell-compound mixtures. Four days post infection, the cytopathic effect was evaluated microscopically and cell viability was assessed with the MTS method, as described above.
In the antiviral assays, each condition was tested in duplicate.

Data set [9] is described as follows: in vitro. It is filed as cell-based. The following applies: human. Here is the method:
(§1) Jurkat cells (3x10^5 cells per well in culture medium) were incubated with serial dilutions of compound at room temperature (RT) for two hours. Cytotoxicity of the compounds was also evaluated at 37°C over a longer period of time in MT-4 cells (5x10^4 cells per well in culture medium, four day incubation) and PHA-stimulated PBMCs (5x10^5 cells per well in culture medium, ten day incubation) because these cell types were used in anti-HIV activity assays which last up to ten days (see below). Each condition was tested in duplicate. Cytotoxicity was evaluated microscopically and, in addition, cell viability was assessed using the colorimetric CellTiter 96 AQueous One Solution Cell Proliferation Assay (Promega, Fitchburg, WI, USA), which is based on the reduction of the tetrazolium salt MTS [3-(4,5-dimethylthiazol-2-yl)-5-(3-carboxymethoxyphenyl)-2-(4-sulfophenyl)-2H-tetrazolium] to formazan by metabolically active cells. Absorbance at 490 nm was measured with the VersaMax ELISA Microplate Reader (Molecular Devices, Sunnyvale, CA, USA). The cytotoxic concentration 50 (CC50) of each compound was calculated based on the absorbance of negative (i.e. cells without compound) and positive (i.e. only culture medium) control samples.

Data set [10] can be described thus: in vitro. It is filed as cell-based. Conditions: human. The procedure: Freshly isolated peripheral blood mononuclear cells (PBMCs) were isolated out of buffy coats from healthy donors (Red Cross, Belgium). They were cultured in RPMI medium with 10% FBS, 2 mM L-glutamine and stimulated with 2 μg/ml phytohemagglutinin (PHA; Sigma-Aldrich) for three days before use in the HIV replication assays (see below).
as §1, with “The cytotoxic concentration 50 (CC50) of each compound was calculated based on the absorbance of negative (i.e. cells without compound) and positive (i.e. only culture medium) control samples.” left out
The source holds these as a separate data set.

Each structure is given as a SMILES string. Where two headings read alike, the source gives them in different places.

T1 sequence (P61073 whole entry): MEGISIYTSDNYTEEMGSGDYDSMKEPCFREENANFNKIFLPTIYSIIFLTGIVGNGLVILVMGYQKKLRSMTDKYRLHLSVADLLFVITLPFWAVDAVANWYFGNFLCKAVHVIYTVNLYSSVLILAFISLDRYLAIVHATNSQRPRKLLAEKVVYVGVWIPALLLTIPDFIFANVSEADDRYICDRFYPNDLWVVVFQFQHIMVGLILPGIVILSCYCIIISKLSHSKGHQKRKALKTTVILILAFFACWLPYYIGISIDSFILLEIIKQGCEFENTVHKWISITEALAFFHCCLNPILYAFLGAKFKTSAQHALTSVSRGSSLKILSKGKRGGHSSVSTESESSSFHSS

For `c1ccc(NCc2ccc(CNc3ccccn3)cc2)nc1` [WZ811], the IC50 is > 100 µM in data set [1] (Jurkat cells, 6.25 nM CXCL12, two hours, mean ± SEM); > 100 µM on CXCR4 [3] (U87.CD4.CXCR4 cells, 6.25 nM CXCL12, mean ± SEM); > 100 µM at CXCR4 [5] (SUP-T1 cells, 6.25 nM CXCL12, 37°C 30 minutes, mean ± SEM); > 100 µM at CXCR4 [6] (Jurkat cells, 2.9 nM CXCL12^AF647, mean ± SEM); 38.2 µM in the data set with HIV-1 NL4-3 (X4) [7]; > 100 µM in the data set with HIV-1 NL4-3 (X4) [8]. Also, the “reduction of labeled CXCR4 mAb binding” value on CXCR4 [2] is given as “unable to reduce mAb binding”. Moreover, the “inhibition of the interaction between CXCL12 and CXCR4” value against CXCR4 [4] was “unable, even at high concentration, to inhibit the interaction between CXCL12 and CXCR4”. The “induction of CXCR4 internalization (agonistic effect)” value at CXCR4 [5] (100 μM) was “absence of an agonistic effect”.
Regarding `CC(C)=CCC[C@]1(C)C=Cc2c(O)c3c(c(CC=C(C)C)c2O1)O[C@]12C(=C[C@@H]4C[C@H]1C(C)(C)O[C@@]2(C/C=C(/C)C(=O)O)C4=O)C3=O` [gambogic acid], the IC50 in data set [1] (Homo sapiens, Jurkat, 2 h) was 1.89 µM; on CXCR4 [3], 4.37 µM; against CXCR4 [5] it was > 10 µM; at CXCR4 [6] it was 7.06 µM; with HIV-1 NL4-3 (X4) [7] (Human immunodeficiency virus 1, NL43, PBMC, 240 h), > 0.225 µM; in the data set on HIV-1 NL4-3 (X4) [8] (Human immunodeficiency virus 1, NL43, MT4, 96 h), > 0.376 µM. In “in vitro [9]”, this molecule returned a CC50 at 2 h of 10 µM. The CC50 at 4 days in the data set “in vitro [9]” is ~0.3 µM. In addition, the “induction of CXCR4 internalization (agonistic effect)” value on CXCR4 [5] (10 μM) is “absence of an agonistic effect”. For the same molecule, the cytotoxic concentration (CC50) at 10 days in “in vitro [10]” is ~0.3 µM.

As usually defined, the IC50 is the point on the concentration scale where inhibition reaches its midpoint. By CC50 is commonly meant the concentration that lowers cell viability or growth by half.

(Values after publication PMC5391968, “Comparison of cell-based assays for the identification and evaluation of competitive CXCR4 inhibitors” (PLoS ONE, 2017).)
